Measured values taken from patent US20240150293A1, “SPIROCYCLOHEXANE DERIVATIVES, PHARMACEUTICAL COMPOSITIONS CONTAINING THEM AND THEIR USES AS ANTI-APOPTOTIC INHIBITORS” (LES LABORATOIRES SERVIER, priority 2021, published 2024).
pIC50, pKi: −log10 of the molar value. Read-outs that look alike come from different tables or passages of the source.

What was measured:
[1] = biological target: Cy5-labelled Mcl1 (amino acids 171-321) C286S protein (UniProtKB Q07820) (Homo sapiens (Human), UniProt Q07820, C286S); test: Inhibition of Mcl-1 by the fluorescence quenching assay (Example A, Method B); format: binding
Cy5-labelled Mcl1 (amino acids 171-321) C286S protein, sequence (Q07820 171-321 C286S): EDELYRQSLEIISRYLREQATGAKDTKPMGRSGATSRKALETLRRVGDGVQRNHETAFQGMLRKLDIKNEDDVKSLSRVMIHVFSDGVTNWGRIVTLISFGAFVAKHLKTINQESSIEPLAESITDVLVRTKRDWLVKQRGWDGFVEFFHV
How it was run: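 Eleven-point compound series incubated 2 h at room temperature with 1 nM Cy5-tagged protein and quencher-labelled PUMA peptide at 10, 20 or 400 nM in HEPES/NaCl/Tween 20, pH 7.4, 5% DMSO. IC50 for 50% fluorescence increase by 4-parameter fit, then Ki derived (complete cKi or estimated eKi).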

[2] = tested on: H929 multiple myeloma tumor line; test: In vitro cytotoxicity, MTT assay (Example B, Method A); format: cell-based; conditions: H929 cells, 48 hours exposure, read-out: C50
Experimental: The cytotoxicity studies were carried out on the H929 multiple myeloma tumor line.
The cells are distributed onto microplates and exposed to the test compounds for 48 hours. The cell viability is then quantified by a colorimetric assay, the Microculture Tetrazolium Assay (Carmichael et al, Cancer Res. 1987, 47, 939-942).
The results are expressed in C50 which means concentration corresponding to […] of effect/inhibition.

Structure (SMILES) | pKi [1] | pIC50 ([2]; Homo sapiens, NCI-H929, 48 h) | pIC50 [2]
C[C@@H](COc1ccnc2c1[C@H](C)CCC2)CC1=Cc2c(Cl)cccc2[C@]12CC[C@@](Nc1cccc(Cl)c1)(C(=O)O)CC2 [Example 739, (1r,4R)-4′-chloro-4-(3-chloroanilino)-2′-[(2R)-2-methyl-3-{[(5R)-5-methyl-5,6,7,8-tetrahydroquinolin-4-yl]oxy}propyl]spiro[cyclohexane-1,1′-indene]-4-carboxylic acid] | 8.82 | 7.06 | –
Cc1cccc2c1C=C(C[C@@H](C)COc1ccnc3c1[C@H](C)CCC3)[C@]21CC[C@](Nc2cccc(Cl)c2)(C(=O)O)CC1 [Example 753, (1r,4R)-4-(3-chloroanilino)-4′-methyl-2′-[(2R)-2-methyl-3-{[(5R)-5-methyl-5,6,7,8-tetrahydroquinolin-4-yl]oxy}propyl]spiro[cyclohexane-1,1′-indene]-4-carboxylic acid] | 8.49 | 6.95 | –
C[C@@H](COc1ccnc2c1CC(C)(C)C2)C[C@H]1Cc2ccccc2[C@]12CC[C@@](Nc1cccc(Cl)c1)(C(=O)O)CC2 [Example 611, (1r,2′S,4S)-4-(3-chloroanilino)-2′-{(2R)-3-[(6,6-dimethyl-6,7-dihydro-5H-cyclopenta[b]pyridin-4-yl)oxy]-2-methylpropyl}-2′,3′-dihydrospiro[cyclohexane-1,1′-indene]-4-carboxylic acid] | 7.91 | 5.78 | –
O=C(O)[C@]1(Nc2cccc(Cl)c2)CC[C@@]2(CC1)c1ccccc1C[C@@H]2C[C@H](COc1ccncc1)c1ccccc1 [Example 555, (1r,2′S,4S)-4-(3-chloroanilino)-2′-{(2S)-2-phenyl-3-[(pyridin-4-yl)oxy]propyl}-2′,3′-dihydrospiro[cyclohexane-1,1′-indene]-4-carboxylic acid] | 7.84 | 5.54 | –
C[C@@H]1CCCc2nccc(OCC(F)CC3Cc4ccccc4[C@]34CC[C@@](Nc3cccc(Cl)c3)(C(=O)O)CC4)c21 (single isomer, unassigned) [Example 510] | 8.82 | – | 6.60
CCCC#C[C@@H](COc1ccnc2ccsc12)CC1=Cc2ccccc2[C@]12CC[C@@](Nc1cccc(Cl)c1)(C(=O)O)CC2 [Example 565, (1r,4S)-4-(3-chloroanilino)-2′-[(2S)-2-{[(thieno[3,2-b]pyridin-7-yl)oxy]methyl}hept-3-yn-1-yl]spiro[cyclohexane-1,1′-indene]-4-carboxylic acid] | 7.97 | 5.62 | –
C[C@@H](COc1ccncc1C(F)(F)F)C[C@H]1Cc2ccccc2[C@]12CC[C@@](Nc1cccc(Cl)c1)(C(=O)O)CC2 [Example 578, (1r,2′S,4S)-4-(3-chloroanilino)-2′-[(2R)-2-methyl-3-{[3-(trifluoromethyl)pyridin-4-yl]oxy}propyl]-2′,3′-dihydrospiro[cyclohexane-1,1′-indene]-4-carboxylic acid] | 8.11 | 6.33 | –
CC[C@@H]1CCc2nccc(OC[C@H](C)C[C@H]3Cc4ccccc4[C@]34CC[C@@](Nc3cccc(Cl)c3)(C(=O)O)CC4)c21 [Example 612, (1r,2′S,4S)-4-(3-chloroanilino)-2′-[(2R)-3-{[(5R)-5-ethyl-6,7-dihydro-5H-cyclopenta[b]pyridin-4-yl]oxy}-2-methylpropyl]-2′,3′-dihydrospiro[cyclohexane-1,1′-indene]-4-carboxylic acid] | 9.25 | 6.50 | –
CC[C@H]1CC[C@H](O)c2nccc(OC[C@H](C)C[C@H]3Cc4ccccc4[C@]34CC[C@@](Nc3cccc(Cl)c3)(C(=O)O)CC4)c21 [Example 678, (1r,2′S,4S)-4-(3-chloroanilino)-2′-[(2R)-3-{[(5S,8S)-5-ethyl-8-hydroxy-5,6,7,8-tetrahydroquinolin-4-yl]oxy}-2-methylpropyl]-2′,3′-dihydrospiro[cyclohexane-1,1′-indene]-4-carboxylic acid] | 6.66 | 5.02 | –
CC(CC1Cc2ccccc2[C@]12CC[C@@](Nc1cccc(Cl)c1)(C(=O)O)CC2)C1CCC(=O)CC1 (single isomer, unassigned) [Example 570, (1r,4r)-4-(3-chloroanilino)-2′-[2-(4-oxocyclohexyl)propyl]-2′,3′-dihydrospiro[cyclohexane-1,1′-indene]-4-carboxylic acid] | 6.44 | 4.52 | –
C[C@@H](COc1ccnc2c1[C@H](C)CCC2)CC1Cc2c(Cl)c(F)ccc2[C@]12CC[C@@](Nc1cccc(Cl)c1)(C(=O)O)CC2 (single isomer, unassigned) [Example 746] | 9.45 | – | 7.60
COCCOc1ccc2c(c1)[C@]1(CC[C@@](Nc3cccc(Cl)c3)(C(=O)O)CC1)[C@@H](C[C@@H](C)COc1ccnc3ccsc13)C2 [Example 730, (1r,2′S,4S)-4-(3-chloroanilino)-6′-(2-methoxyethoxy)-2′-{(2R)-2-methyl-3-[(thieno[3,2-b]pyridin-7-yl)oxy]propyl}-2′,3′-dihydrospiro[cyclohexane-1,1′-indene]-4-carboxylic acid] | 8.68 | 6.68 | –
C[C@@H]1CCCc2nccc(OCC(CF)CC3=Cc4ccccc4[C@]34CC[C@@](Nc3cccc(Cl)c3)(C(=O)O)CC4)c21 (single isomer, unassigned) [Example 514] | 8.74 | – | 6.49
C[C@@H](COc1ccnc2c1[C@H](C)CCC2)CC1Cc2c(F)c(Cl)ccc2[C@]12CC[C@@](Nc1cccc(Cl)c1)(C(=O)O)CC2 (single isomer, unassigned) [Example 748] | 8.82 | 6.86 | –
Cc1cc2c(cc1C)[C@]1(CC[C@@](Nc3cccc(Cl)c3)(C(=O)O)CC1)[C@H](C[C@@H](C)COc1ccnc3c1[C@H](C)CCC3)C2 [Example 855, (1r,2′R,4R)-4-(3-chloroanilino)-5′,6′-dimethyl-2′-[(2R)-2-methyl-3-{[(5R)-5-methyl-5,6,7,8-tetrahydroquinolin-4-yl]oxy}propyl]-2′,3′-dihydrospiro[cyclohexane-1,1′-indene]-4-carboxylic acid] | 9.15 | 7.29 | –
C[C@@H](COc1ccnc2c1[C@@H](C)CCC2)C[C@H]1Cc2cc(Cl)c(O)cc2[C@]12CC[C@@](Nc1cccc(Cl)c1)(C(=O)O)CC2 [Example 814, (1r,2′S,4S)-5′-chloro-4-(3-chloroanilino)-6′-hydroxy-2′-[(2R)-2-methyl-3-{[(5S)-5-methyl-5,6,7,8-tetrahydroquinolin-4-yl]oxy}propyl]-2′,3′-dihydrospiro[cyclohexane-1,1′-indene]-4-carboxylic acid] | 8.47 | 6.87 | –
CCCC#C[C@H](COc1ccnc2ccsc12)CC1=Cc2ccccc2[C@]12CC[C@@](Nc1cccc(Cl)c1)(C(=O)O)CC2 [Example 564, (1r,4R)-4-(3-chloroanilino)-2′-[(2R)-2-{[(thieno[3,2-b]pyridin-7-yl)oxy]methyl}hept-3-yn-1-yl]spiro[cyclohexane-1,1′-indene]-4-carboxylic acid] | 7.52 | 4.79 | –
C[C@@H](COc1ccnc2c1[C@H](C)CCC2)C[C@H]1Cc2ccccc2[C@]12CC[C@@](Nc1ccc(F)c(Cl)c1)(C(=O)O)CC2 [Example 702, (1r,2′S,4S)-4-(3-chloro-4-fluoroanilino)-2′-[(2R)-2-methyl-3-{[(5R)-5-methyl-5,6,7,8-tetrahydroquinolin-4-yl]oxy}propyl]-2′,3′-dihydrospiro[cyclohexane-1,1′-indene]-4-carboxylic acid] | 9.71 | 7.38 | –
C[C@@H](COc1ccnc2ccsc12)C[C@H]1Cc2ccccc2[C@]12CC[C@@](Nc1cccc(Cl)c1)(C(=O)O)CC2 [Example 591, (1r,2′S,4S)-4-(3-chloroanilino)-2′-{(2R)-2-methyl-3-[(thieno[3,2-b]pyridin-7-yl)oxy]propyl}-2′,3′-dihydrospiro[cyclohexane-1,1′-indene]-4-carboxylic acid] | 8.57 | 6.36 | –
C[C@@H](COc1ccnc2c1[C@H](C)CCC2)C[C@@H]1Cc2cc3c(cc2[C@]12CC[C@@](Nc1cccc(Cl)c1)(C(=O)O)CC2)OCO3 [Example 841, (1r,4R,6′R)-4-(3-chloroanilino)-6′-[(2R)-2-methyl-3-{[(5R)-5-methyl-5,6,7,8-tetrahydroquinolin-4-yl]oxy}propyl]-6′,7′-dihydro-2′H-spiro[cyclohexane-1,5′-indeno[5,6-d][1,3]dioxole]-4-carboxylic acid] | 9.76 | 7.12 | –
C[C@@H](COc1ccnc2c1[C@H]1CCC[C@H]1C2)C[C@H]1Cc2ccccc2[C@]12CC[C@@](Nc1cccc(Cl)c1)(C(=O)O)CC2 (single isomer, unassigned) [Example 621, (1r,2′S,4S)-4-(3-chloroanilino)-2′-[(2R)-3-{[(4bR*,7aR*)-4b,5,6,7,7a,8-hexahydropentaleno[2,1-b]pyridin-4-yl]oxy}-2-methylpropyl]-2′,3′-dihydrospiro[cyclohexane-1,1′-indene]-4-carboxylic acid] | 7.42 | – | 5.60
C[C@@H](COc1ncnc2c1CCCC2)CC1=Cc2ccccc2[C@]12CC[C@@](Nc1cccc(Cl)c1)(C(=O)O)CC2 [Example 636, (1r,4R)-4-(3-chloroanilino)-2′-{(2R)-2-methyl-3-[(5,6,7,8-tetrahydroquinazolin-4-yl)oxy]propyl}spiro[cyclohexane-1,1′-indene]-4-carboxylic acid] | 7.79 | 5.51 | –
